According to patent US11299474B2, “Crystal form targeting CDK4/6 kinase inhibitor” (XUANZHU BIOPHARMACEUTICAL CO., LTD., priority 2018, dated 2022):
Entries after “also recorded” stand apart in the source; their conditions may differ.

Tests used:
Format in all cases: physicochemical
[1] = Stability test (appearance, related substances, XRPD) under high humidity, 60° C. and light
Protocol: Experiment Method: The test product was placed under high humidity (25° C./RH 92.5% or 40° C./RH 75%) conditions or under 60° C. conditions for 10 days, and samples were taken on the 5th and 10th days, respectively; and placed under light (4500 LX±500 LX) conditions for 10 days, a sample was taken on the 10th day and tested for related substances and XRPD, and the same was compared with the sample of day 0.
Relevant substances: Measured according to Chinese Pharmacopoeia, 2015 edition, Volume II, Appendix V D High Performance Liquid Chromatography.
XRPD measurement: Measured according to Chinese Pharmacopoeia, 2015 edition, Volume IV, 0451 X-Ray Diffraction Method.
The test product was placed under 25° C./RH 92.5% or under 60° C. conditions for 10 days, and was sampled on the 5th and 10th days respectively; the test product was placed under light (4500 LX±500 LX) or 40° C./RH 75% conditions for 10 days, sampled on the 10th day and tested for related substances and XRPD, and compared with the sample of day 0.
Related substances: Measured according to Chinese Pharmacopoeia, 2015 edition, Volume II, Appendix V D High Performance Liquid Chromatography.
XRPD Measurement: Chinese Pharmacopoeia, 2015 edition, Volume IV, 0451 X-Ray Diffraction Method.

[2] = Hygroscopicity test; conditions: Chinese Pharmacopoeia 2015, 9103
From the text: Measurement method: Measured according to Chinese Pharmacopoeia, 2015 edition, Volume IV, General Principles, 9103 Guiding Principles for Hygroscopicity Test on Drugs.

[3] = Compressibility experiment (tablet hardness vs tablet thickness); conditions: for Maximum tablet hardness: as tablet thickness decreases (tableting force increases)
From the text: The change of tablet hardness with tablet thickness was investigated, and compressibility was compared.

[4] = Tablet disintegration; conditions: 40 mg tablet with adjuvants
From the text: (§1) The disintegration and dissolution was investigated under the following conditions.
(§2) Dissolution Method: Paddle method (Chinese Pharmacopoeia, 2015 edition, Volume IV, 0931 Dissolution and Release Measurement methods, Method II); medium: 0.2% SDS aqueous solution; and rotation speed: 50 r/min.

[5] = Tablet dissolution, paddle method; conditions: 0.2% SDS aqueous solution, 50 r/min
From the text: as §1, §2

[6] = Particle size measurement (laser particle size analyzer); conditions: water dispersant, Tween 80
Protocol: An appropriate amount of the test product was taken, 0.1 mL of a 1% Tween 80 solution was added to reduce the surface tension, and water was used as a dispersant to prepare a uniformly dispersed suspension. The same was placed in a sample dispersion device, the stirring speed was adjusted to 2000 rpm, ultrasonication was carried out for 2 min at an ultrasonic frequency of 7 KHz, and measurement was carried out.

Question: For `CCN1CCN(Cc2cnc(Nc3cc(-c4cc(F)c5nc(C)n(C(C)C)c5c4)c(F)cn3)nc2)CC1` [Compound of formula (I), 5-((4-ethylpiperazin-1-yl)methyl)-N-(5-fluoro-4-(4-fluoro-1-isopropyl-2-methyl-1H-benzo[d]imidazol-6-yl)pyridin-2-yl)pyrimidin-2-amine], which Appearance ([1]; 0 day) is on record?
Answer: Off-white

Question: What about the “Related substance (%)” value ([1]; 0 day) of the same molecule?
Answer: 0.14%

Question: And the “XRPD (solid form found)” value ([1]; 0 day)?
Answer: Amorphous

Question: What about the Appearance ([1]; 25° C./RH 92.5% Open, 5 day) of the same molecule?
Answer: Off-white

Question: What about the “Related substance (%)” value ([1]; 25° C./RH 92.5% Open, 5 day) of the same molecule?
Answer: 0.14%

Question: What about the “XRPD (solid form found)” value ([1]; 25° C./RH 92.5% Open, 5 day) of the same molecule?
Answer: Amorphous

Question: And the Appearance ([1]; 25° C./RH 92.5% Open, 10 day)?
Answer: Off-white

Question: And the “Related substance (%)” value ([1]; 25° C./RH 92.5% Open, 10 day)?
Answer: 0.19%

Question: And the “XRPD (solid form found)” value ([1]; 25° C./RH 92.5% Open, 10 day)?
Answer: Amorphous

Question: And the Appearance ([1]; 40° C./RH 75% Open, 10 day)?
Answer: Off-white

Question: What about the “Related substance (%)” value ([1]; 40° C./RH 75% Open, 10 day) of the same molecule?
Answer: 0.19%

Question: And the “XRPD (solid form found)” value ([1]; 40° C./RH 75% Open, 10 day)?
Answer: Amorphous

Question: What about the Appearance ([1]; 60° C. Open, 5 day) of the same molecule?
Answer: Light yellow

Question: And the “Related substance (%)” value ([1]; 60° C. Open, 5 day)?
Answer: 0.67%

Question: And the “XRPD (solid form found)” value ([1]; 60° C. Open, 5 day)?
Answer: Amorphous

Question: What about the Appearance ([1]; 60° C. Open, 10 day) of the same molecule?
Answer: Light yellow

Question: And the “Related substance (%)” value ([1]; 60° C. Open, 10 day)?
Answer: 1.15%

Question: What about the “XRPD (solid form found)” value ([1]; 60° C. Open, 10 day) of the same molecule?
Answer: Amorphous

Question: And the Appearance ([1]; Light (4500 LX±500 LX), 10 day)?
Answer: Light yellow

Question: And the “Related substance (%)” value ([1]; Light (4500 LX±500 LX), 10 day)?
Answer: 10.54%

Question: What about the “XRPD (solid form found)” value ([1]; Light (4500 LX±500 LX), 10 day) of the same molecule?
Answer: Amorphous

Question: And the “Related substance (%)” value ([1]; Light (4500 LX±500 LX), 10 day, listed as amorphous form)?
Answer: up to 10.54%

Question: And the Hygroscopicity results [2]?
Answer: Moisture absorbability

Question: What about the “Moisture absorption weight gain (%)” value [2] of the same molecule?
Answer: 6.3%

Question: And the Hardness of tablet ([3]; Tablet thickness 1.8 mm, listed as amorphous form)?
Answer: 2.75 kg

Question: What about the Hardness of tablet ([3]; Tablet thickness 2.0 mm, listed as amorphous form) of the same molecule?
Answer: 0.59 kg

Question: What about the Hardness of tablet ([3]; Tablet thickness 2.4 mm, listed as amorphous form) of the same molecule?
Answer: 0.72 kg

Question: And the Maximum tablet hardness ([3]; listed as amorphous form)?
Answer: about 2.75 kg

Question: What about the “Behaviour during tabletting (observation)” value ([3]; during the process of tabletting, listed as amorphous form) of the same molecule?
Answer: prone to wall sticking; also recorded: prone to capping

Question: And the “Disintegration behaviour (observation)” value [4]?
Answer: Absorbed water

Question: What about the Disintegration time ([4]; listed as Amorphous form) of the same molecule?
Answer: >30 min

Question: And the “Cumulative dissolution (%)” value ([5]; 5 min, listed as Amorphous form)?
Answer: 1.0%

Question: And the “Cumulative dissolution (%)” value ([5]; 10 min, listed as Amorphous form)?
Answer: 2.7%

Question: What about the “Cumulative dissolution (%)” value ([5]; 15 min, listed as Amorphous form) of the same molecule?
Answer: 4.6%

Question: What about the “Cumulative dissolution (%)” value ([5]; 30 min, listed as Amorphous form) of the same molecule?
Answer: 9.2%

Question: And the “Cumulative dissolution (%)” value ([5]; 45 min, listed as Amorphous form)?
Answer: 13.2%

Question: What about the “Cumulative dissolution (%)” value ([5]; 60 min, listed as Amorphous form) of the same molecule?
Answer: 18.5%

Question: Which Appearance ([1]; 0 day) does the source give for `CCN1CCN(Cc2cnc(Nc3cc(-c4cc(F)c5nc(C)n(C(C)C)c5c4)c(F)cn3)nc2)CC1` [Crystal form A of the compound of formula (I)] [5-((4-ethylpiperazin-1-yl)methyl)-N-(5-fluoro-4-(4-fluoro-1-isopropyl-2-methyl-1H-benzo[d]imidazol-6-yl)pyridin-2-yl)pyrimidin-2-amine] here?
Answer: Off-white

Question: And the “Related substance (%)” value ([1]; 0 day)?
Answer: 0.11%

Question: What about the “XRPD (solid form found)” value ([1]; 0 day) of the same molecule?
Answer: Crystal form A

Question: What about the Appearance ([1]; 25° C./RH 92.5% Open, 5 day) of the same molecule?
Answer: Off-white

Question: What about the “Related substance (%)” value ([1]; 25° C./RH 92.5% Open, 5 day) of the same molecule?
Answer: 0.09%

Question: What about the “XRPD (solid form found)” value ([1]; 25° C./RH 92.5% Open, 5 day) of the same molecule?
Answer: Crystal form A

Question: What about the Appearance ([1]; 25° C./RH 92.5% Open, 10 day) of the same molecule?
Answer: Off-white

Question: What about the “Related substance (%)” value ([1]; 25° C./RH 92.5% Open, 10 day) of the same molecule?
Answer: 0.09%

Question: What about the “XRPD (solid form found)” value ([1]; 25° C./RH 92.5% Open, 10 day) of the same molecule?
Answer: Crystal form A

Question: And the Appearance ([1]; 40° C./RH 75% Closed, 5 day)?
Answer: Off-white

Question: What about the “Related substance (%)” value ([1]; 40° C./RH 75% Closed, 5 day) of the same molecule?
Answer: 0.10%

Question: And the “XRPD (solid form found)” value ([1]; 40° C./RH 75% Closed, 5 day)?
Answer: Crystal form A

Question: What about the Appearance ([1]; 40° C./RH 75% Closed, 10 day) of the same molecule?
Answer: Off-white

Question: What about the “Related substance (%)” value ([1]; 40° C./RH 75% Closed, 10 day) of the same molecule?
Answer: 0.20%

Question: What about the “XRPD (solid form found)” value ([1]; 40° C./RH 75% Closed, 10 day) of the same molecule?
Answer: Crystal form A

Question: What about the Appearance ([1]; 40° C./RH 75% Open, 5 day) of the same molecule?
Answer: Off-white

Question: And the “Related substance (%)” value ([1]; 40° C./RH 75% Open, 5 day)?
Answer: 0.10%

Question: What about the “XRPD (solid form found)” value ([1]; 40° C./RH 75% Open, 5 day) of the same molecule?
Answer: Crystal form A

Question: What about the Appearance ([1]; 40° C./RH 75% Open, 10 day) of the same molecule?
Answer: Off-white

Question: And the “Related substance (%)” value ([1]; 40° C./RH 75% Open, 10 day)?
Answer: 0.20%

Question: And the “XRPD (solid form found)” value ([1]; 40° C./RH 75% Open, 10 day)?
Answer: Crystal form A

Question: What about the Appearance ([1]; 60° C. Closed, 5 day) of the same molecule?
Answer: Off-white

Question: And the “Related substance (%)” value ([1]; 60° C. Closed, 5 day)?
Answer: 0.09%

Question: And the “XRPD (solid form found)” value ([1]; 60° C. Closed, 5 day)?
Answer: Crystal form A

Question: And the Appearance ([1]; 60° C. Closed, 10 day)?
Answer: Off-white

Question: What about the “Related substance (%)” value ([1]; 60° C. Closed, 10 day) of the same molecule?
Answer: 0.11%

Question: What about the “XRPD (solid form found)” value ([1]; 60° C. Closed, 10 day) of the same molecule?
Answer: Crystal form A

Question: What about the Appearance ([1]; 60° C. Open, 5 day) of the same molecule?
Answer: Off-white

Question: What about the “Related substance (%)” value ([1]; 60° C. Open, 5 day) of the same molecule?
Answer: 0.11%

Question: What about the “XRPD (solid form found)” value ([1]; 60° C. Open, 5 day) of the same molecule?
Answer: Crystal form A

Question: And the Appearance ([1]; 60° C. Open, 10 day)?
Answer: Off-white

Question: What about the “Related substance (%)” value ([1]; 60° C. Open, 10 day) of the same molecule?
Answer: 0.14%

Question: And the “XRPD (solid form found)” value ([1]; 60° C. Open, 10 day)?
Answer: Crystal form A

Question: What about the “Change of properties (appearance, related substances, XRPD)” value ([1]; 60° C. or light conditions, 10 days) of the same molecule?
Answer: no obvious change

Question: What about the Appearance ([1]; Light (4500 LX±500 LX), 10 day) of the same molecule?
Answer: Off-white

Question: What about the “Related substance (%)” value ([1]; Light (4500 LX±500 LX), 10 day) of the same molecule?
Answer: 0.09%

Question: What about the “XRPD (solid form found)” value ([1]; Light (4500 LX±500 LX), 10 day) of the same molecule?
Answer: Crystal form A

Question: What about the Hygroscopicity results [2] of the same molecule?
Answer: No or almost no moisture

Question: What about the “Moisture absorption weight gain (%)” value [2] of the same molecule?
Answer: 0.003%

Question: What about the “Particle size distribution, 10% of the sample” value [6] of the same molecule?
Answer: ≤ 2.501 μm

Question: And the “Particle size distribution, 50% of the sample” value [6]?
Answer: ≤ 10.432 μm

Question: And the “Particle size distribution, 90% of the sample” value [6]?
Answer: ≤ 59.852 μm

Question: And the Hardness of tablet ([3]; Tablet thickness 0.9 mm, "/" means no tablet can be formed at that thickness)?
Answer: 2.97 kg

Question: And the Hardness of tablet ([3]; Tablet thickness 1.3 mm, "/" means no tablet can be formed at that thickness)?
Answer: 3.50 kg

Question: And the Hardness of tablet ([3]; Tablet thickness 1.8 mm)?
Answer: 5.40 kg

Question: And the Hardness of tablet ([3]; Tablet thickness 2.0 mm)?
Answer: 1.76 kg

Question: And the Hardness of tablet ([3]; Tablet thickness 2.4 mm)?
Answer: 0 kg

Question: And the Maximum tablet hardness [3]?
Answer: about 5.4 kg

Question: And the Disintegration time [4]?
Answer: 4 min

Question: And the “Time to complete dissolution” value [5]?
Answer: ≤ 60 min

Question: What about the “Cumulative dissolution (%)” value ([5]; 5 min) of the same molecule?
Answer: 69.2%

Question: What about the “Cumulative dissolution (%)” value ([5]; 10 min) of the same molecule?
Answer: 90.7%

Question: And the “Cumulative dissolution (%)” value ([5]; 15 min)?
Answer: 93.8%

Question: And the “Cumulative dissolution (%)” value ([5]; 30 min)?
Answer: 96.6%

Question: What about the “Cumulative dissolution (%)” value ([5]; 45 min) of the same molecule?
Answer: 97.5%

Question: What about the “Cumulative dissolution (%)” value ([5]; 60 min) of the same molecule?
Answer: 97.9%
